Source: patent US12662475B2, “Difluorocyclohexyl derivatives as IL-17 modulators” (UCB BIOPHARMA SRL, priority 2020, dated 2026)
Structures can show the parent of a compound that is named as a salt.

Tested on: IL-17 induced IL-6 release from human dermal fibroblasts
Assay: Inhibition of IL-17A induced IL-6 release from dermal fibroblast cell line (HDF cell line assay)
Assay type: cell-based
Settings: Incubation Time 5 h
Experimental: Inhibition of IL-17A Induced IL-6 Release from Dermal Fibroblast Cell Line
The purpose of this assay is to test the neutralising ability to IL-17 proteins, in a human primary cell system.
The resultant IL-6 response was then measured using a homogenous time-resolved FRET kit from Cisbio. The kit utilises two monoclonal antibodies, one labelled with Eu-Cryptate (Donor) and the second with d2 or XL665 (Acceptor).
The ability of a compound to inhibit IL-17 induced IL-6 release from human dermal fibroblasts is measured in this assay.
The TrypLE was neutralised using complete medium (45 mL) and the cells were centrifuged at 300×g for 3 minutes. […] The cells were left for a minimum of three hours, at 37° C./5% CO2, to adhere to the plate.
10 μL from the aqueous dilution plate was transferred to the reagent plate containing 30 μL of the diluted cytokines, to give a 2.5% DMSO solution. The compounds were incubated with the cytokine mixtures for 1 h or 5 h at 37° C. After the incubation, 10 μL was transferred to the assay plate, to give a […] solution, then incubated for 18-20 h at 37° C./5% CO2.

Row | Structure (SMILES) | IC50
1 | Cc1nonc1C(=O)N[C@H](c1nc2c(F)c([C@@H](CC(F)F)C(=O)N[C@@H](C)C(F)(F)F)ccc2[nH]1)C1CCC(F)(F)CC1 (single isomer, unassigned) [Example 45] | 501 nM
2 | Cc1nonc1C(=O)N[C@H](c1nc2c(F)c([C@H](CC(F)F)C(=O)N[C@H](C)C(F)(F)F)ccc2[nH]1)C1CCC(F)(F)CC1 (single isomer, unassigned) [Example 47] | 158 nM
3 | Cc1nonc1C(=O)N[C@H](c1nc2c(F)c([C@@H](CC(F)F)C(=O)N[C@H](C)C(F)(F)F)ccc2[nH]1)C1CCC(F)(F)CC1 (single isomer, unassigned) [Example 48] | 3160 nM
4 | O=C(N[C@H](c1nc2c(F)c([C@H](CC(F)F)C(=O)NCC(F)(F)F)ccc2[nH]1)C1CCC(F)(F)CC1)c1ccccc1F (single isomer, unassigned) [Example 50] | 10 nM
5 | O=C(N[C@H](c1nc2c(F)c([C@@H](CC(F)F)C(=O)NCC(F)(F)F)ccc2[nH]1)C1CCC(F)(F)CC1)c1ccccc1F (single isomer, unassigned) [Example 51] | 1580 nM
6 | CC(C)n1ncnc1C(=O)N[C@H](c1nc2c(F)c([C@@H](CC(F)F)C(=O)NCC(C)(F)F)ccc2[nH]1)C1CCC(F)(F)CC1 (single isomer, unassigned) [Example 54] | 79.4 nM
7 | CC(C)n1ncnc1C(=O)N[C@H](c1nc2c(F)c([C@H](CC(F)F)C(=O)NCC(C)(F)F)ccc2[nH]1)C1CCC(F)(F)CC1 (single isomer, unassigned) [Example 55] | 3.98 nM
8 | CC(C)n1ncnc1C(=O)N[C@H](c1nc2c(F)c([C@@H](CC(F)F)C(=O)NCC(C)(C)F)ccc2[nH]1)C1CCC(F)(F)CC1 (single isomer, unassigned) [Example 57] | 2510 nM
9 | CC(C)n1ncnc1C(=O)N[C@H](c1nc2c(F)c([C@H](CC(F)F)C(=O)NCC(C)(C)F)ccc2[nH]1)C1CCC(F)(F)CC1 (single isomer, unassigned) [Example 58] | 7.94 nM
10 | CC(C)(F)CNC(=O)[C@H](CC(F)(F)F)c1ccc2[nH]c([C@@H](NC(=O)c3nonc3C3CC3)C3CCC(F)(F)CC3)nc2c1F (single isomer, unassigned) [Example 63] | 158 nM
11 | CC(C)(F)CNC(=O)[C@@H](CC(F)(F)F)c1ccc2[nH]c([C@@H](NC(=O)c3nonc3C3CC3)C3CCC(F)(F)CC3)nc2c1F (single isomer, unassigned) [Example 64] | 2 nM
12 | CC(C)n1ncnc1C(=O)N[C@H](c1nc2c(F)c([C@@H](CC(F)(F)F)C(=O)NCC(C)(F)F)ccc2[nH]1)C1CCC(F)(F)CC1 (single isomer, unassigned) [Example 69] | 2510 nM
13 | CC(C)n1ncnc1C(=O)N[C@H](c1nc2c(F)c([C@H](CC(F)(F)F)C(=O)NCC(C)(F)F)ccc2[nH]1)C1CCC(F)(F)CC1 (single isomer, unassigned) [Example 70] | 6.31 nM
14 | CC(C)n1ncnc1C(=O)N[C@H](c1nc2c(F)c([C@@H](CC(F)(F)F)C(=O)NCC(C)(C)F)ccc2[nH]1)C1CCC(F)(F)CC1 (single isomer, unassigned) [Example 72] | 1580 nM
15 | CC(C)n1ncnc1C(=O)N[C@H](c1nc2c(F)c([C@H](CC(F)(F)F)C(=O)NCC(C)(C)F)ccc2[nH]1)C1CCC(F)(F)CC1 (single isomer, unassigned) [Example 73] | 6.31 nM
16 | CC(F)(F)CNC(=O)[C@H](CC(F)(F)F)c1ccc2[nH]c([C@@H](NC(=O)C3(F)CC3)C3CCC(F)(F)CC3)nc2c1F (single isomer, unassigned) [Example 83] | 2000 nM
17 | CC(F)(F)CNC(=O)[C@@H](CC(F)(F)F)c1ccc2[nH]c([C@@H](NC(=O)C3(F)CC3)C3CCC(F)(F)CC3)nc2c1F (single isomer, unassigned) [Example 84] | 25.1 nM
18 | CC(C)n1ncnc1C(=O)N[C@H](c1nc2c(F)c([C@@H](CC(C)(F)F)C(=O)NCC(C)(F)F)ccc2[nH]1)C1CCC(F)(F)CC1 (single isomer, unassigned) [Example 86] | 6310 nM
19 | CC(C)n1ncnc1C(=O)N[C@H](c1nc2c(F)c([C@H](CC(C)(F)F)C(=O)NCC(C)(F)F)ccc2[nH]1)C1CCC(F)(F)CC1 (single isomer, unassigned) [Example 87] | 7.94 nM
20 | Cc1nonc1C(=O)N[C@H](c1nc2c(F)c(C(CC(F)(F)F)C(=O)NCCC(F)(F)F)ccc2[nH]1)C1CCC(F)(F)CC1 (stereo partly drawn) [Example 13, N—[(S)-(4,4-Difluorocyclohexyl){4-fluoro-5-[3,3,3-trifluoro-1-(3,3,3-trifluoropropyl-carbamoyl)propyl]-1H-benzimidazol-2-yl}methyl]-4-methyl-1,2,5-oxadiazole-3-carboxamide] | 5.01 nM
21 | Cc1nonc1C(=O)N[C@H](c1nc2c(F)c(C(CC(F)(F)F)C(=O)NCC3CC3(F)F)ccc2[nH]1)C1CCC(F)(F)CC1 (stereo partly drawn) [Example 14, N—[(S)-(4,4-Difluorocyclohexyl)(5-{1-[(2,2-difluorocyclopropyl)methylcarbamoyl]-3,3,3-trifluoropropyl}-4-fluoro-1H-benzimidazol-2-yl)methyl]-4-methyl-1,2,5-oxadiazole-3-carboxamide] | 7.94 nM
22 | Cc1nonc1C(=O)N[C@H](c1nc2nc(C3(C(=O)NCC(F)(F)F)CCC(F)(F)CC3)ccc2[nH]1)C1CCC(F)(F)CC1 [Example 39, N—[(S)-(4,4-Difluorocyclohexyl){5-[4,4-difluoro-1-(2,2,2-trifluoroethylcarbamoyl)-cyclohexyl]-1H-imidazo[4,5-b]pyridin-2-yl}methyl]-4-methyl-1,2,5-oxadiazole-3-carboxamide Monoformate Salt] | 5.01 nM
23 | Cc1nonc1C(=O)N[C@H](c1nc2c(F)c(C(CC(F)F)C(=O)NC(C3CC3)C(F)(F)F)ccc2[nH]1)C1CCC(F)(F)CC1 (stereo partly drawn) [Example 52, N—[(S)-(5-{1-[(1-Cyclopropyl-2,2,2-trifluoroethyl)carbamoyl]-3,3-difluoropropyl}-4-fluoro-1H-benzimidazol-2-yl)(4,4-difluorocyclohexyl)methyl]-4-methyl-1,2,5-oxadiazole-3-carboxamide] | 5.01 nM
24 | CC(C)n1ncnc1C(=O)N[C@H](c1nc2nc(C3(C(=O)NCC(F)(F)F)CCC(F)(F)CC3)ccc2[nH]1)C1CCC(F)(F)CC1 [Example 77, N—[(S)-(4,4-Difluorocyclohexyl){5-[4,4-difluoro-1-(2,2,2-trifluoroethylcarbamoyl)-cyclohexyl]-1H-imidazo[4,5-b]pyridin-2-yl}methyl]-2-isopropyl-1,2,4-triazole-3-carboxamide] | 12.6 nM
25 | O=C(N[C@H](c1nc2nc(C3(C(=O)NCC(F)(F)F)CCC(F)(F)CC3)ccc2[nH]1)C1CCC(F)(F)CC1)C1(F)CC1 [Example 78, 1-(2-{(S)-(4,4-Difluorocyclohexyl)[(1-fluorocyclopropanecarbonyl)amino]methyl}-1H-imidazo[4,5-b]pyridin-5-yl)-4,4-difluoro-N-(2,2,2-trifluoroethyl)cyclohexanecarboxamide] | 15.8 nM
26 | CC(C)n1ncnc1C(=O)N[C@H](c1nc2c(F)c([C@H](CC(C)(F)F)C(=O)NCC(C)(C)F)ccc2[nH]1)C1CCC(F)(F)CC1 [Example 79, N—[(S)-(4,4-Difluorocyclohexyl)(5-{(1S)-3,3-difluoro-1-[(2-fluoro-2-methylpropyl)-carbamoyl]butyl}-4-fluoro-1H-benzimidazol-2-yl)methyl]-2-isopropyl-1,2,4-triazole-3-carboxamide] | 7.94 nM
27 | CC(C)n1ncnc1C(=O)N[C@H](c1nc2c(F)c([C@H](CC(F)F)C(=O)NCC(F)(F)F)ccc2[nH]1)C1CCC(F)(F)CC1 [Example 80, N—[(S)-(4,4-Difluorocyclohexyl){5-[(1S)-3,3-difluoro-1-(2,2,2-trifluoroethylcarbamoyl)-propyl]-4-fluoro-1H-benzimidazol-2-yl}methyl]-2-isopropyl-1,2,4-triazole-3-carboxamide] | 6.31 nM
28 | O=C(NCC(F)(F)F)[C@@H](CC(F)F)c1ccc2[nH]c([C@@H](NC(=O)C3(F)CC3)C3CCC(F)(F)CC3)nc2c1F [Example 81, N—[(S)-(4,4-Difluorocyclohexyl){5-[(1S)-3,3-difluoro-1-(2,2,2-trifluoroethylcarbamoyl)-propyl]-4-fluoro-1H-benzimidazol-2-yl}methyl]-1-fluorocyclopropanecarboxamide] | 31.6 nM
